In patent US20150246946A1, “PEPTIDES AND METHODS FOR TREATING CANCER” (AGENCY FOR SCIENCE, TECHNOLOGY AND RESEARCH, priority 2012, published 2015):
Bridges are numbered along the chain shown (N, C = ends). [ ]: non-standard residue; d: D form. R8 = C=CCCCCCC[C@@](C)(N)C(=O)O; S5 = C=CCCC[C@](C)(N)C(=O)O; FAM = carboxyfluorescein

T1: Mdm4 (1-125) (Homo sapiens, UniProt O15151)
T1 construct: Mdm4 (1-125) were ligated into the GST fusion expression vector pGEX-6P-1; GST (N, cleaved yes); made in house; host or cells: E. coli BL21 DE3
T1 sequence (O15151 1-125): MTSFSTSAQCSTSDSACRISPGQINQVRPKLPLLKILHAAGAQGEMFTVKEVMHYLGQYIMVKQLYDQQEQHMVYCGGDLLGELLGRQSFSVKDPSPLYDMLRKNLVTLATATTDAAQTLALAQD

T2: interaction of p53 with Mdm4 in living BHK cells (Homo sapiens, UniProt O15151)
T2 construct: Mdm4 (1-129) with RFP; host or cells: transgenic BHK cells with lac operator repeats
T2 sequence (O15151 1-129): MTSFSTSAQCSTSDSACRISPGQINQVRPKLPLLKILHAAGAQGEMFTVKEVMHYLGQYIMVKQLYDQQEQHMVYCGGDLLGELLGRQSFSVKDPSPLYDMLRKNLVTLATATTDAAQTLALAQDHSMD

T3: Mdm4 (1-125) (human, UniProt O15151 1-125)
T3 construct: range 1-125; also called MDMX; Hdm4
T3 sequence (looked up): T1 sequence (O15151 1-125)

B1: sMTide-01 (peptide)
peptide: Ac-TSF[R8]EYWNLL[S5]-NH2
modifications: staple 4-11
SMILES: CC(=O)N[C@H](C(=O)N[C@@H](CO)C(=O)N[C@@H](Cc1ccccc1)C(=O)N[C@]1(C)CCCCCCC=CCCC[C@@](C)(C(N)=O)NC(=O)[C@H](CC(C)C)NC(=O)[C@H](CC(C)C)NC(=O)[C@H](CC(N)=O)NC(=O)[C@H](Cc2c[nH]c3ccccc23)NC(=O)[C@H](Cc2ccc(O)cc2)NC(=O)[C@H](CCC(=O)O)NC1=O)[C@@H](C)O
notes: Stapled derivative of MTide-01; also called Ac-TSFXEYWNLLX-NH2
B2: carboxyfluorescein (FAM) labelled 12-1 peptide (FAM-RFMDYWEGL-NH2) (peptide)
peptide: {FAM}-RFMDYWEGL-NH2
notes: Labelled probe of the fluorescence anisotropy assays; also called FAM labeled probe

What was measured:
HCT-116 p53+/+ cells [1] = assay: HCT-116 Western blot analysis; format: cell-based; conditions: 6 hours, with or without fetal calf serum, FIG. 2d
Experimental: Cells were treated with various compounds/vehicle controls at the time points and concentrations indicated also in acoy's media with 10% FBS. Cells were rinsed with PBS and then harvested in 200 μl of 1× NuPAGE LDS sample buffer supplied by Invitrogen (NP0008). Samples were then sonicated, heated to 90° C. for 5 mins, sonicated twice for 10 s and centrifuged at 13, 000 rpm for 5 minutes. Protein concentrations were measured by BCA assay (Pierce). Western blots were then performed using antibodies against actin (AC-15, Sigma) as a loading control, p21 (118 mouse monoclonal), Mdm2 (4B2 mouse monoclonal) and p53 (DO-1 mouse monoclonal).

p53 null thymocytes = assay: cell viability in mouse thymocytes, p53 null; format: cell-based, mice; conditions: high doses, 24 hours, annexin V/PI
HCT-116 p53−/− cells [2] = assay: Caspase-Glo 3/7 assay, HCT-116 p53−/−; format: cell-based; conditions: 24 hours
Description: (§1) Data was normalized to vehicle-treated controls.

HCT116 p53+/+ cells = assay: cell cycle analysis (propidium iodide flow cytometry); format: cell-based; conditions: 24 hours; for cell cycle distribution at high concentrations: high concentration (FIG. 5); for cell cycle distribution at low concentrations: low concentration (FIG. 4c)
Experimental: Three hundred fifty thousand cells were then seeded per well in 6-well plates containing incubated overnight. […] A 1% DMSO vehicle control treatment was also carried out. Cells were washed with PBS and then detached from the plate surface by trypsinisation. […] Cells were spun down and resuspended with PI-staining solution containing RNase A. Cells were analyzed using an LSR II (Becton Dickinson).

Mdm4 (1-125) [3] = molecular target: T1, Mdm4 (1-125); assay: competitive fluorescence polarization/anisotropy, apparent Kd against Mdm4; format: binding
Experimental: (§2) The cells expressing the GST fusion constructs were grown in LB medium at 37° C. to an OD600 of ˜0.6 and induction was started with 1 mM IPTG and carried out overnight at room temperature. Cells were harvested by centrifugation and the cell pellets were re-suspended in 50 mM Tris pH 8.0, 10% sucrose and were then sonicated. The sonicated sample was centrifuged for 60 mins at 17,000 g at 4° C. […] The column was then further washed by 6 volumes of wash buffer. Mdm2 and Mdm4 were then purified from the column by cleavage with Precission (GE Lifesciences) protease. 10 units of precission protease, in one column volume of PBS with 1 mM DTT buffer, were injected onto the column. The cleavage reaction was allowed to proceed overnight at 4° C. The cleaved protein was then eluted of the column with wash buffer. Protein fractions were analyzed with SDS page gel and concentrated using a Centricon (3.5 kDa MWCO) concentrator, Millipore. Mdm2 and Mdm4 protein samples were then dialyzed into a buffer solution containing 20 mM Bis-Tris, pH 6.5, 0.05M NaCl with 1 mM DTT and loaded onto a monoS column pre-equilibrated in buffer A (20 mM Bis-Tris, pH 6.5, 1 mM DTT). The column was then washed in 6 column volumes of buffer A and bound protein was eluted with a linear gradient of 1M NaCL over 25 column volumes. Protein fractions were analyzed with SDS page gel and concentrated using a Centricon (3.5 kDa MWCO) concentrator from Millipore.
(§3) Apparent Kd values were determined for a variety of molecules via competitive fluorescence anisotropy experiments. […] The competing molecules were then titrated against complex of the FAM labelled peptide and protein. Apparent Kd values were determined by fitting the experimental data to the equations shown below:
(§4) [L]st and [L]t denote labelled ligand and total unlabelled ligand input concentrations, respectively. Kd2 is the dissociation constant of the interaction between the unlabelled ligand and the protein. In all competitive types of experiments, it is assumed that [P]t>[L]st, otherwise considerable amounts of free labelled ligand would always be present and would interfere with measurements. […] The FAM-labelled peptide were dissolved in DMSO at 1 mM and diluted into experimental buffer. Readings were carried out with a Envision Multilabel Reader (PerkinElmer). […] All titrations were carried out in triplicate. Curve-fitting was carried out using Prism 4.0 (GraphPad).

HCT-116 p53+/+ cells [4] = assay: cell viability (CellTiter-Glo), HCT-116 p53+/+; format: cell-based; conditions: 24 hours
Description: as §1

HCT-116 p53+/+ cells [5] = assay: Caspase-Glo 3/7 assay, HCT-116 p53+/+; format: cell-based; conditions: 24 hours
Description: as §1

[6] = tested on: p53 responsive LacZ reporter gene in T22 cell line; assay: T22 p53 β-galactosidase based reporter assay; format: cell-based, murine; conditions: for p53 transcriptional activity in T22 p53 reporter assay: 18 hours, DMEM with 10% FBS
Experimental: T22 cells, which were stably transfected with a p53 responsive […] reporter, were seeded into 96-well plate at a cell density of 8000 cells per well. […] Measurements were carried out using a Safire II multiplate reader (TECAN). Experiments were carried out independently twice.

[7] = tested on: thymocytes from p53 wild-type mice; assay: cell viability in mouse thymocytes, p53 wild-type; format: cell-based; conditions: p53 wild-type vs p53 deficient mice, 24 hours, annexin V/PI
Experimental: Thymocytes were isolated from wild-type and p53^+/−mice (age 4-9 weeks) and kept in a PBS/FCS (2%) solution (ref). Cells were plated at a density of 1×10^6 per well in 24-well plates in medium [DMEM/Hepes (25 mM, pH 7.2), 5% FCS, penicillin/streptomycin, glutamine] and incubated at 37° C. with 2% C02. […] Cell were then analysed for viability using this procedure, cells were washed with cold PBS, and stained with FITC-labeled annexin V antibody (PharMingen) and PI (Sigma). The relative amounts of apoptotic cells were determined by binding of annexin V and subsequent fluorescence-activated cell sorter analysis. All values were normalized to the number of cells remaining viable in vehicle (1% DMSO) treated cultures derived from the same animal stained simultaneously. Data are representatives of n=4 independent experiments.

[8] = molecular target: T4, interaction of p53 with Mdm2 in living BHK cells (Homo sapiens, UniProt Q00987); assay: F2H co-localization assay p53:Mdm2; format: cell-based; conditions: 0 to 50 μM
T4 construct: the prey is a fusion of either Mdm2 (7-134) or Mdm4 (1-129) with RFP; host or cells: transgenic BHK cells with lac operator repeats
T4 sequence (Q00987 7-134): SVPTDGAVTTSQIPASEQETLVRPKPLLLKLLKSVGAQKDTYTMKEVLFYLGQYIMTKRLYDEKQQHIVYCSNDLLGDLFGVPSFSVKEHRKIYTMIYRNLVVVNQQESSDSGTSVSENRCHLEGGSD

SJSA-1 cell line = assay: caspase 3/7 activity in SJSA-1 cell line; conditions: SJSA-1 cells, titration
Mdm2 (1-125) [9] = molecular target: T5, Mdm2 (1-125) (Homo sapiens, UniProt Q00987); assay: competitive fluorescence polarization/anisotropy, apparent Kd against Mdm2; format: binding
T5 construct: Mdm2 (1-125) and Mdm4 (1-125) were ligated into the GST fusion expression vector pGEX-6P-1; GST (N, cleaved yes); made in house; host or cells: E. coli BL21 DE3
T5 sequence (Q00987 1-125): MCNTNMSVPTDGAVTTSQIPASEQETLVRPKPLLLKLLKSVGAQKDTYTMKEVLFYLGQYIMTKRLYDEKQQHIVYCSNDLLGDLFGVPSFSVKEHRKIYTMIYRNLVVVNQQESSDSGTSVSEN
Experimental: as §2, §3, §4

HCT-116 p53−/− cells [10] = assay: cell viability (CellTiter-Glo), HCT-116 p53−/−; format: cell-based; conditions: 24 hours
Description: as §1

[11] = molecular target: T2, interaction of p53 with Mdm4 in living BHK cells; assay: F2H co-localization assay p53:Mdm4; format: cell-based; conditions: 0 to 50 μM
Mdm4 (1-125) [12] = molecular target: T3, Mdm4 (1-125); assay: apparent Kd, competitive fluorescence polarization; displacement of FAM-…-NH2 from Mdm4 (1-125)
Mdm4 (1-125) [13] = molecular target: T3, Mdm4 (1-125); assay: competitive fluorescence polarization
Mdm2 (1-125) [14] = molecular target: T6, Mdm2 (1-125) (human, UniProt Q00987 1-125); assay: competitive fluorescence polarization
T6 construct: range 1-125; also called Hdm2
T6 sequence (Q00987 1-125 limits assumed): as the sequence (Q00987 1-125) above

Mdm2 (1-125) [15] = molecular target: T6, Mdm2 (1-125); assay: apparent Kd, competitive fluorescence polarization; displacement of FAM-…-NH2 from Mdm2 (1-125)
Mdm4 (1-125) [16] = molecular target: T3, Mdm4 (1-125); assay: direct fluorescence anisotropy titration of Mdm4 (1-125) against 50 nM labelled peptide, 1:1 model

Molecule	effect of serum on activity (HCT-116 p53+/+ cells [1])	apoptosis in p53 null thymocytes (p53 null thymocytes)	caspase 3/7 activity (HCT-116 p53−/− cells [2])	cell cycle distribution at high concentrations (HCT116 p53+/+ cells)	cell cycle distribution at low concentrations (HCT116 p53+/+ cells)	cell viability (HCT-116 p53+/+ cells [4])	caspase 3/7 activity (HCT-116 p53+/+ cells [5])	p53 transcriptional activity in T22 p53 reporter assay [6]	cell death in thymocytes [7]	disruption of p53 interaction with Mdm2 (F2H) [8]	induction of caspase 3/7 activity (SJSA-1 cell line)	cell viability (HCT-116 p53−/− cells [10])	further results
CC(=O)N[C@H](C(=O)N[C@@H](CO)C(=O)N[C@@H](Cc1ccccc1)C(=O)N[C@]1(C)CCCCCCC=CCCC[C@@](C)(C(N)=O)NC(=O)[C@H](CC(C)C)NC(=O)[C@H](CC(C)C)NC(=O)[C@H](C)NC(=O)[C@H](Cc2c[nH]c3cc(Cl)ccc23)NC(=O)[C@H](Cc2ccc(O)cc2)NC(=O)[C@H](CCC(=O)O)NC1=O)[C@@H](C)O [sMTide-02A, Ac-^1TSFXEY(L-6-Cl)WALLX^11-NH2]	significantly improved potency in the absence of serum	to a certain extent	negligible caspase 3/7 activity	G2 arrest	G2 arrest	no significant decrease in the viability	negligible caspase 3/7 activity	much higher fold induction of p53 transcriptional activity than the unmodified sMTide-02	induced cell death in a p53-dependent manner	dissociate Mdm2 from p53	induced caspase 3/7 activity at substantially higher concentrations than nutlin	no significant decrease in the viability	Mdm4 Kd (Mdm4 (1-125) [3]; apparent Kd, competitive fluorescence polarization, Mdm4 75 nM, FAM peptide 50 nM): significantly attenuated; preference between Mdm2 and Mdm4 in binding (Mdm2 (1-125) [9]; comparison of apparent Kds): preference for Mdm2 over Mdm4
CC(=O)N[C@H](C(=O)N[C@@H](CO)C(=O)N[C@@H](Cc1ccccc1)C(=O)N[C@]1(C)CCCCCCC=CCCC[C@@](C)(C(N)=O)NC(=O)[C@H](CC(C)C)NC(=O)[C@H](CC(C)C)NC(=O)[C@H](C)NC(=O)[C@H](Cc2c[nH]c3ccccc23)NC(=O)[C@H](Cc2ccc(O)cc2)NC(=O)[C@H](CCC(=O)O)NC1=O)[C@@H](C)O [sMTide-02, Ac-^1TSFXEYWALLX^11-NH2]	significantly improved potency in the absence of serum	did not	negligible caspase 3/7 activity	G2 arrest	G2 arrest	no significant decrease in the viability	negligible caspase 3/7 activity	strongest p53 transcriptional response ever seen in this assay	induced cell death in a p53-dependent manner	dissociate Mdm2 from p53	induced caspase 3/7 activity at substantially higher concentrations than nutlin	no significant decrease in the viability	Kd (Mdm4 (1-125) [3]): 45.7 ± 7.65 nM; increase in Kd against Mdm4 in comparison to unstapled counterpart (Mdm4 (1-125) [3]; stapled vs unstapled peptide): 2 fold; disruption of p53 interaction with Mdm4 (F2H) [11]: greater potency against Mdm4; effect of PGP inhibitor PSC-883 on p53 response in the reporter assay ([6]; with 20 μM PSC-883 vs without): significantly improved the sensitivity of the p53 response; increase in Kd against Mdm2 in comparison to unstapled counterpart (Mdm2 (1-125) [9]; stapled vs unstapled peptide): negligible increase
B1													Kd (Mdm4 (1-125) [12]): 118 nM; fold increase in Kd against its unstapled counterpart (MTide-01) (Mdm4 (1-125) [13]): ~4 fold; fold increase in Kd against its unstapled counterpart (MTide-01) (Mdm2 (1-125) [14]): ~2 fold; Kd (Mdm2 (1-125) [15]): 87 nM
B2													Kd (Mdm4 (1-125) [16]): 4.2 nM
